From patent US20240067651A1 (Biohaven Therapeutics Ltd., priority 2019, published 2024)

How the values were obtained:
[1] = Caco-2 Permeability Assay; assay type: in vitro ADME, human; conditions: human
Excerpt: The compounds of the invention may be tested for biological activity as MPO inhibitors by methods known to those skilled in the art. In addition, methods such as, for example, a Caco-2 assay, may be used to test the bioavailability of the compounds of the invention. A description of a Caco-2 permeability assay is as follows:
• The Caco-2 monolayer is widely used across the pharmaceutical industry as an in vitro model of the human small intestinal mucosa to predict the absorption of orally administered drugs.^1-4 • The Caco-2 cell model mimics processes such as transcellular transport, paracellular transport, and some aspects of efflux and active transport. • Readout: Papp (A→B), Papp (B→A), Efflux ratio, % Recovery • Controls: with and without Pgp inhibitor; Atenolol, Propanolol, Taxel-1
The Caco-2 cells are cultured to confluency, trypsinized and seeded onto a filter transwell insert at a density of ^˜32,000 cells/well in DMEM cell culture medium. Cells are grown in a humidified atmosphere of 5% CO2 at 37° C. Following an overnight attachment period (24 h after seeding), the cell medium is replaced with fresh medium in both the apical and basolateral compartments every other day. The cell monolayers are used for transport studies 21 days post seeding after measuring the TEER values ([…]). The apical sides and basolateral sides are washed consecutively with HBSS 2.5% (v/v), HEPES (pH 7.4) or HBSS 2.5% (v/v), HEPES 10% (v/v), and Fetal Bovine Serum (pH 7.4) at 37° C. in an incubator under an atmosphere of 5% CO2.
Donor working solution is prepared by dilution of DMSO stock of test article or positive control with transport media to 10 μM.
For A→B directional transport, the donor working solution (with test article or positive control, with or without Pgp inhibitor) is added to the apical (A) compartment and the transport media as receiver working solution is added to the basolateral (B) compartment. For B→A directional transport, the donor working solution (with positive control or test article, with or without Pgp inhibitor) is added to the basolateral (B) compartment and transport media as receiver working solution is added to the apical (A) compartment.
The cells are incubated in a humidified atmosphere of 5% CO2 at 37° C. for 90 minutes.
At the end of the incubation, samples are taken from both donor and receiver compartments and transferred into 96-well assay plates containing internal standard solution (IS) in each well. After centrifugation, the supernatant solutions are transferred to clean 96 well plates and analyzed by LC-MS/MS. The MS detection is performed using a Sciex API 4000 instrument. Each compound is analyzed by reversed phase HPLC.
The parameters Papp (apparent permeability) and efflux ratio are calculated as follows:
Papp=(dQ/dt)×(1/C0)×(1/A)
Efflux ratio=Papp[B→A]/Papp[A→B]
where dQ/dt is the permeability rate, C0 is the initial concentration in the donor compartment, and A is the surface area of the cell monolayer (0.33 cm^2). The Papp value is a rate measured in cm/s. Calculated Papp is ranked as low (<[…]), moderate (1-10×10^−6 cm/s), and high (>[…]).
Comparing the efflux ratios generated in the presence and absence of a Pgp inhibitor identifies whether the test article is a Pgp substrate.
Recovery is calculated as follows:
% Recovery=(Total compound mass in donor and receiver compartments at the end of the incubation/Initial compound mass in the donor compartment)×100.

[2] = Stability in Simulated Gastric Fluid (SGF); assay type: in vitro ADME; set-up: key: % parent compound remaining relative to 0-minute sample; conditions: % remaining at 1 h in simulated gastric fluid
Method in brief: (§1)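 Percent of parent remaining relative to time zero was measured by LC-MS/MS over 0–60 min at 37 °C, 150 rpm. Test compound was 2 μg/mL final in pepsin-containing SGF, pH 1.2, or pancreatin-containing SIF, pH 6.8. Degradation half-life was derived from the log-linear decay where enough points allowed.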

[3] = Stability in Simulated Intestinal Fluid (SIF); assay type: in vitro ADME; set-up: key: % parent compound remaining relative to 0-minute sample; conditions: % remaining at 1 h in simulated intestinal fluid
Method in brief: as §1

[4] = Plasma Stability; assay type: in vitro ADME, human; conditions: % remaining at 1 h in human plasma
Method in brief: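 Parent compound quantified by LC-MS/MS after acetonitrile precipitation, reported as percent of control remaining (triplicate). Incubation: 1 hour, 37° C, fresh human plasma, compound at 1 μM.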

[5] = Caco-2, pH 7.4, Caco-2 monolayer

Structure (SMILES) | Papp at 90 min, 10 µM [1, 5] [×10⁻⁶ cm/s] | SGF [2] | SIF [3] | human Plasma stability [4] [% remaining] | Papp at 90 min, 10 µM ([1]; pH 7.4, Caco-2 monolayer) [×10⁻⁶ cm/s]
CSCC[C@H](NC(=O)OCC1c2ccccc2-c2ccccc21)C(=O)NCCC(=O)OCn1ccc2c1c(=O)[nH]c(=S)n2CCOC(C)C.O=C(O)C(F)(F)F [Example 21] | 5.79 | 88% remaining | 75% remaining | 91 | –
CC(C)OCCn1c(=S)[nH]c(=O)c2c1ccn2COC(=O)CCCCNC(=O)[C@H](Cc1ccccc1)NC(=O)OCC1c2ccccc2-c2ccccc21.O=C(O)C(F)(F)F [Example 22] | 0.647 | 87% remaining | 90% remaining | 74 | –
CC(C)OCCn1c(=S)[nH]c(=O)c2c1ccn2COC(=O)CCNC(=O)[C@H](Cc1ccccc1)NC(=O)OCC1c2ccccc2-c2ccccc21.O=C(O)C(F)(F)F [Example 23] | 1.94 | 93% remaining | 84% remaining | 92 | –
CC(C)OCCn1c(=S)[nH]c(=O)c2c1ccn2COC(=O)CCNC(=O)[C@@H](N)CCc1ccccc1.O=C(O)C(F)(F)F [Example 25] | 0.287 | 99% remaining | 43% remaining | 96 | –
CC(C)C[C@H](NC(=O)OC(C)(C)C)C(=O)NCCCCC(=O)OCn1ccc2c1c(=O)[nH]c(=S)n2CCOC(C)C [Example 26] | 12.7 | 99% remaining | 66% remaining | 32 | –
CC(C)C[C@H](NC(=O)OC(C)(C)C)C(=O)NCCC(=O)OCn1ccc2c1c(=O)[nH]c(=S)n2CCOC(C)C [Example 27] | 8.61 | 92% remaining | 61% remaining | 91 | –
CSCC[C@H](NC(=O)OC(C)(C)C)C(=O)NCCCCC(=O)OCn1ccc2c1c(=O)[nH]c(=S)n2CCOC(C)C [Example 28] | 6.7 | 99% remaining | 75% remaining | 62 | –
CSCC[C@H](NC(=O)OC(C)(C)C)C(=O)NCCC(=O)OCn1ccc2c1c(=O)[nH]c(=S)n2CCOC(C)C [Example 29] | 5.41 | 92% remaining | 62% remaining | 98 | –
CC(C)C[C@H](N)C(=O)NCCC(=O)OCn1ccc2c1c(=O)[nH]c(=S)n2CCOC(C)C.O=C(O)C(F)(F)F [Example 30] | < 0.269 | 93% remaining | 67% remaining | 40 | –
CSCC[C@H](N)C(=O)NCCCCC(=O)OCn1ccc2c1c(=O)[nH]c(=S)n2CCOC(C)C.O=C(O)C(F)(F)F [Example 31] | 0.325 | 94% remaining | 85% remaining | 1 | –
CC[C@H](C)[C@H](NC(=O)OC(C)(C)C)C(=O)NCCCCC(=O)OCn1ccc2c1c(=O)[nH]c(=S)n2CCOC(C)C [Example 33] | 9.47 | 90% remaining | 78% remaining | 53 | –
CC[C@H](C)[C@H](NC(=O)OC(C)(C)C)C(=O)NCCC(=O)OCn1ccc2c1c(=O)[nH]c(=S)n2CCOC(C)C [Example 34] | 10.7 | 85% remaining | 90% remaining | 93 | –
CC(C)OCCn1c(=S)[nH]c(=O)c2c1ccn2COC(=O)CCCCNC(=O)[C@@H](NC(=O)OC(C)(C)C)[C@@H](C)O.O=C(O)C(F)(F)F [Example 35] | 1.91 | 91% remaining | 99% remaining | 30 | –
CC(C)OCCn1c(=S)[nH]c(=O)c2c1ccn2COC(=O)CCNC(=O)[C@@H](NC(=O)OC(C)(C)C)[C@@H](C)O.O=C(O)C(F)(F)F [Example 36] | 0.835 | 95% remaining | 88% remaining | 79 | –
CC[C@H](C)[C@H](N)C(=O)NCCCCC(=O)OCn1ccc2c1c(=O)[nH]c(=S)n2CCOC(C)C.O=C(O)C(F)(F)F [Example 37] | 1.09 | 88% remaining | 89% remaining | 1 | –
CC[C@H](C)[C@H](N)C(=O)NCCC(=O)OCn1ccc2c1c(=O)[nH]c(=S)n2CCOC(C)C.O=C(O)C(F)(F)F [Example 38] | 0.31 | 92% remaining | 84% remaining | 65 | –
CC(C)OCCn1c(=S)[nH]c(=O)c2c1ccn2COC(=O)CCCCNC(=O)[C@@H](N)[C@@H](C)O.O=C(O)C(F)(F)F [Example 39] | < 0.196 | 91% remaining | 91% remaining | 5 | –
CC(C)OCCn1c(=S)[nH]c(=O)c2c1ccn2COC(=O)CCNC(=O)[C@@H](N)[C@@H](C)O.O=C(O)C(F)(F)F [Example 40] | < 0.235 | 100% | 86% remaining | 88 | –
CC(C)OCCn1c(=S)[nH]c(=O)c2c1ccn2COC(=O)CCCCNC(=O)[C@H](CO)NC(=O)OC(C)(C)C.O=C(O)C(F)(F)F [Example 41] | 1.15 | 78% remaining | 87% remaining | 21 | –
CC(C)OCCn1c(=S)[nH]c(=O)c2c1ccn2COC(=O)CCNC(=O)[C@H](CO)NC(=O)OC(C)(C)C.O=C(O)C(F)(F)F [Example 42] | 0.507 | 86% remaining | 75% remaining | 51 | –
CC(C)OCCn1c(=S)[nH]c(=O)c2c1ccn2COC(=O)CCCCNC(=O)[C@@H](N)CO.O=C(O)C(F)(F)F [Example 43] | 0.147 | 92% remaining | 87% remaining | 16 | –
CC(C)OCCn1c(=S)[nH]c(=O)c2c1ccn2COC(=O)CCNC(=O)[C@@H](N)CO.O=C(O)C(F)(F)F [Example 44] | < 0.222 | 96% remaining | 1% remaining | 5 | –
CC(C)OCCn1c(=S)[nH]c(=O)c2c1ccn2COC(=O)CCCCNC(=O)[C@H](Cc1ccc(O)cc1)NC(=O)OC(C)(C)C.O=C(O)C(F)(F)F [Example 45] | – | 100% | 89% remaining | 66 | 2.28
CC(C)OCCn1c(=S)[nH]c(=O)c2c1ccn2COC(=O)CCNC(=O)[C@H](Cc1ccc(O)cc1)NC(=O)OC(C)(C)C.O=C(O)C(F)(F)F [Example 46] | 1.12 | 98% remaining | 100% | 63 | –
